Earlier results, collected in patent US20240226212A1, “GENOMIC SEQUENCES FOR YEAST PROBIOTICS” (Worcester Polytechnic Institute, priority 2023, published 2024).

Test system: C. albicans

OCCc1c[nH]c2ccccc12 [tryptophol]
filamentation of C. albicans: shown to inhibit filamentation
